Results as given in PubChem BioAssay (NCI).
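Interpolation was linear, between the two tested concentrations surrounding the appropriate level; five concentrations were tested over 48 hours in 96-well plates. GI50: concentration for 50% inhibition of growth. TGI: total growth inhibition.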

Key:
Experiment in all cases: NCI-60 cell line screen, 48 h
[1] = tested on: NCI-H23 lung
[2] = tested on: HS 578T breast
[3] = tested on: RPMI-8226 leukemia
[4] = tested on: UACC-62 melanoma
[5] = tested on: HCC-2998 colon
[6] = tested on: OVCAR-3 ovarian
[7] = tested on: SK-MEL-2 melanoma
[8] = tested on: BT-549 breast
[9] = tested on: HCT-116 colon
[10] = tested on: SF-295 CNS
[11] = tested on: SK-MEL-5 melanoma
[12] = tested on: MALME-3M melanoma
[13] = tested on: SR leukemia
[14] = tested on: MOLT-4 leukemia
[15] = tested on: KM12 colon
[16] = tested on: TK-10 renal
[17] = tested on: HT29 colon
[18] = tested on: A549 NSCLC
[19] = tested on: ACHN renal
[20] = tested on: SN12C renal
[21] = tested on: NCI-H522 lung
[22] = tested on: OVCAR-4 ovarian
[23] = tested on: CAKI-1 renal
[24] = tested on: SNB-75 CNS
[25] = tested on: HCT-15 colon
[26] = tested on: 786-0 renal
[27] = tested on: SF-539 CNS
[28] = tested on: NCI-H460 lung
[29] = tested on: NCI/ADR-RES ovarian
[30] = tested on: CCRF-CEM leukemia
[31] = tested on: NCI-H226 lung
[32] = tested on: COLO 205 colon
[33] = tested on: DU-145 prostate
[34] = tested on: SNB-19 CNS
[35] = tested on: OVCAR-8 ovarian
[36] = tested on: UO-31 renal
[37] = tested on: PC-3 prostate
[38] = tested on: HL-60(TB) leukemia
[39] = tested on: RXF 393 renal
[40] = tested on: SK-MEL-28 melanoma
[41] = tested on: U251 CNS
[42] = tested on: MDA-MB-231 breast
[43] = tested on: LOX IMVI melanoma
[44] = tested on: K-562 leukemia
[45] = tested on: A498 renal
[46] = tested on: OVCAR-5 ovarian
[47] = tested on: HOP-62 NSCLC
[48] = tested on: SW-620 colon
[49] = tested on: T-47D breast
[50] = tested on: MCF7 breast
[51] = tested on: M14 melanoma
[52] = tested on: SF-268 CNS
[53] = tested on: MDA-MB-435
[54] = tested on: IGROV1 ovarian
[55] = tested on: UACC-257 melanoma
[56] = tested on: HOP-92 NSCLC
[57] = tested on: SK-OV-3 ovarian

Nc1c(C(=O)c2cccc(OC[C@@H](O)CO)c2)cnn1-c1ccc(F)cc1
GI50 [1]: > 25 µM
TGI [1]: > 25 µM
GI50 [2]: > 25 µM
TGI [2]: > 25 µM
GI50 [3]: > 25 µM
TGI [3]: > 25 µM
GI50 [4]: > 25 µM
TGI [4]: > 25 µM
GI50 [5]: > 25 µM
TGI [5]: > 25 µM
GI50 [6]: > 25 µM
TGI [6]: > 25 µM
GI50 [7]: > 25 µM
TGI [7]: > 25 µM
GI50 [8]: > 25 µM
TGI [8]: > 25 µM
GI50 [9]: > 25 µM
TGI [9]: > 25 µM
GI50 [10]: > 25 µM
TGI [10]: > 25 µM
GI50 [11]: > 25 µM
TGI [11]: > 25 µM
GI50 [12]: > 25 µM
TGI [12]: > 25 µM
GI50 [13]: > 25 µM
TGI [13]: > 25 µM
GI50 [14]: > 25 µM
TGI [14]: > 25 µM
GI50 [15]: > 25 µM
TGI [15]: > 25 µM
GI50 [16]: > 25 µM
TGI [16]: > 25 µM
GI50 [17]: > 25 µM
TGI [17]: > 25 µM
GI50 [18]: > 25 µM
TGI [18]: > 25 µM
GI50 [19]: > 25 µM
TGI [19]: > 25 µM
GI50 [20]: > 25 µM
TGI [20]: > 25 µM
GI50 [21]: > 25 µM
TGI [21]: > 25 µM
GI50 [22]: > 20.9 µM
TGI [22]: > 25 µM
GI50 [23]: > 25 µM
TGI [23]: > 25 µM
GI50 [24]: > 25 µM
TGI [24]: > 25 µM
GI50 [25]: > 25 µM
TGI [25]: > 25 µM
GI50 [26]: > 25 µM
TGI [26]: > 25 µM
GI50 [27]: > 25 µM
TGI [27]: > 25 µM
GI50 [28]: > 25 µM
TGI [28]: > 25 µM
GI50 [29]: > 25 µM
TGI [29]: > 25 µM
GI50 [30]: > 25 µM
TGI [30]: > 25 µM
GI50 [31]: > 25 µM
TGI [31]: > 25 µM
GI50 [32]: > 25 µM
TGI [32]: > 25 µM
GI50 [33]: > 25 µM
TGI [33]: > 25 µM
GI50 [34]: > 25 µM
TGI [34]: > 25 µM
GI50 [35]: > 25 µM
TGI [35]: > 25 µM
GI50 [36]: > 25 µM
TGI [36]: > 25 µM
GI50 [37]: > 25 µM
TGI [37]: > 25 µM
GI50 [38]: > 25 µM
TGI [38]: > 25 µM
GI50 [39]: > 25 µM
TGI [39]: > 25 µM
GI50 [40]: > 25 µM
TGI [40]: > 25 µM
GI50 [41]: > 25 µM
TGI [41]: > 25 µM
GI50 [42]: > 25 µM
TGI [42]: > 25 µM
GI50 [43]: > 25 µM
TGI [43]: > 25 µM
GI50 [44]: > 25 µM
TGI [44]: > 25 µM
GI50 [45]: > 25 µM
TGI [45]: > 25 µM
GI50 [46]: > 25 µM
TGI [46]: > 25 µM
GI50 [47]: > 25 µM
TGI [47]: > 25 µM
GI50 [48]: > 25 µM
TGI [48]: > 25 µM
GI50 [49]: > 25 µM
TGI [49]: > 25 µM
GI50 [50]: > 25 µM
TGI [50]: > 25 µM
GI50 [51]: > 25 µM
TGI [51]: > 25 µM
GI50 [52]: > 25 µM
TGI [52]: > 25 µM
GI50 [53]: > 25 µM
TGI [53]: > 25 µM
GI50 [54]: > 25 µM
TGI [54]: > 25 µM
GI50 [55]: > 25 µM
TGI [55]: > 25 µM
GI50 [56]: > 25 µM
TGI [56]: > 25 µM
GI50 [57]: > 25 µM
TGI [57]: > 25 µM

C[CH2][Pb]([CH2]C)([CH2]C)[O]C(=O)COC
GI50 [1]: 1.01 µM
TGI [1]: 5.07 µM
GI50 [2]: 0.517 µM
TGI [2]: 4.57 µM
GI50 [3]: 0.421 µM
TGI [3]: 3 µM
GI50 [4]: 0.407 µM
TGI [4]: 3.47 µM
GI50 [5]: 0.907 µM
TGI [5]: 2.39 µM
GI50 [6]: 0.441 µM
TGI [6]: 1.86 µM
GI50 [7]: 0.332 µM
TGI [7]: 0.879 µM
GI50 [8]: 0.837 µM
TGI [8]: 3.61 µM
GI50 [9]: 0.578 µM
TGI [9]: 1.97 µM
GI50 [10]: 1.33 µM
TGI [10]: 3.06 µM
GI50 [11]: 0.427 µM
TGI [11]: 1.62 µM
GI50 [12]: 0.337 µM
TGI [12]: 3.76 µM
GI50 [13]: 0.328 µM
TGI [13]: 5.07 µM
GI50 [14]: 1.75 µM
TGI [14]: 5.97 µM
GI50 [15]: 0.817 µM
TGI [15]: 6.1 µM
GI50 [16]: 0.832 µM
TGI [16]: 3.77 µM
GI50 [17]: 1.43 µM
TGI [17]: 3.38 µM
GI50 [18]: 1.36 µM
TGI [18]: 6.82 µM
GI50 [19]: 0.836 µM
TGI [19]: 10.2 µM
GI50 [20]: 2.05 µM
TGI [20]: 9.19 µM
GI50 [21]: 0.892 µM
TGI [21]: 2.48 µM
GI50 [22]: 0.541 µM
TGI [22]: 2.91 µM
GI50 [23]: 1.06 µM
TGI [23]: 8.04 µM
GI50 [24]: 0.304 µM
TGI [24]: 2.85 µM
GI50 [25]: 0.737 µM
TGI [25]: 4.33 µM
GI50 [26]: 1.22 µM
TGI [26]: 3.11 µM
GI50 [27]: 1.23 µM
TGI [27]: 3.28 µM
GI50 [28]: 0.951 µM
TGI [28]: 10.4 µM
GI50 [29]: 0.785 µM
TGI [29]: 12 µM
GI50 [30]: 0.534 µM
TGI [30]: 6.84 µM
GI50 [31]: 1.62 µM
TGI [31]: 6.17 µM
GI50 [32]: 1.35 µM
TGI [32]: 2.96 µM
GI50 [33]: 1.49 µM
TGI [33]: 5.68 µM
GI50 [34]: 1.97 µM
TGI [34]: 9.06 µM
GI50 [35]: 1.91 µM
TGI [35]: 9.03 µM
GI50 [36]: 0.567 µM
TGI [36]: 2.95 µM
GI50 [37]: 0.795 µM
TGI [37]: 2.51 µM
GI50 [38]: 0.634 µM
TGI [38]: 2.45 µM
GI50 [39]: 0.232 µM
TGI [39]: 0.783 µM
GI50 [40]: 0.552 µM
TGI [40]: 2.9 µM
GI50 [41]: 1.29 µM
TGI [41]: 2.94 µM
GI50 [42]: 1.13 µM
TGI [42]: 3.37 µM
GI50 [43]: 0.815 µM
TGI [43]: 2.28 µM
GI50 [44]: 0.499 µM
TGI [44]: 5.77 µM
GI50 [45]: 0.277 µM
TGI [45]: 2.29 µM
GI50 [46]: 1.46 µM
TGI [46]: 3.77 µM
GI50 [47]: 1.67 µM
TGI [47]: 4.06 µM
GI50 [48]: 0.333 µM
TGI [48]: 1.33 µM
GI50 [49]: 0.317 µM
TGI [49]: 2.53 µM
GI50 [50]: 0.469 µM
TGI [50]: 7.53 µM
GI50 [51]: 0.4 µM
TGI [51]: 1.9 µM
GI50 [52]: 1.75 µM
TGI [52]: 7.02 µM
GI50 [53]: 0.182 µM
TGI [53]: 0.409 µM
GI50 [54]: 1.15 µM
TGI [54]: 6.33 µM
GI50 [55]: 0.571 µM
TGI [55]: 3.26 µM
GI50 [56]: 0.292 µM
TGI [56]: 3.28 µM
GI50 [57]: 1.55 µM
TGI [57]: 4.93 µM
